Common to all, as to format: in vivo
Assay [1] concerns Alternaria solani. Briefly: Comparison Test 1: Fungicidal control of early blight on tomatoes. Conditions: another trial, tomato plants treated with 16 ppm; untreated 90%.
The subject of assay [2] is Sphaerotheca fuliginea. Briefly: Comparison Test 5: Protective control of powdery mildew on cucumber. Conditions: cucumber seedlings treated with 16 ppm, inoculated next day, assessed after 8 days; untreated 100%. As for the experimental part: Cucumber seedlings of the variety “Chinesische Schlange” were grown in pots to the 2 leaf stage. The plants were then sprayed to run-off with an aqueous suspension, containing the concentration of active ingredient as described below, prepared from a stock solution containing 10% of the active ingredient, 85% cyclohexanone and 5% emulsifier. The next day the treated plants were inoculated with an aqueous spore suspension of cucumber powdery mildew (Sphaerotheca fuliginea). Then the trial plants were cultivated in a greenhouse at temperatures between 20 and 24° C. and a relative humidity between 60 and 80.%. After 8 days the extent of fungal attack on the leaves was visually assessed as % diseased leaf area.

In assay [3] the test system is Septoria tritici. The assay can be described thus: Comparison Trial 3: Fungicidal control of leaf blotch on wheat (protective). The settings on record: wheat seedlings treated with 63 ppm, inoculated following day, assessed after 2 weeks; untreated 90%.
Assay [4] concerns Pyrenophora teres. Briefly: Comparison Test 2: Control of net blotch on barley. Conditions: barley treated with 250 ppm, inoculated next day, assessed after 6 days; untreated 100%.

For `Cc1nc2ncnn2c(N2CCC(C)CC2)c1-c1c(F)cccc1Cl` [E], the “infection (% diseased leaf area)” value was found to be 30% in assay [1] and 90% in assay [2]. Take `CCN(CC)c1c(-c2c(F)cccc2Cl)c(C#N)nc2ncnn12` [I-5]: in assay [3], the “infection (% diseased leaf area)” value was “no infection”. Regarding `COc1nc2ncnn2c(C2CCCCC2)c1-c1c(F)cccc1Cl` [C], in assay [4], the “infection (% diseased leaf area)” value is 100%. Still for that read-out and setting: next, `N#Cc1nc2ncnn2c(C2CCCCC2)c1-c1c(F)cccc1Cl` [D]: 100%.
